Counter-ions that a name gives are not always drawn. Like-named read-outs stand apart in the source and are kept apart here.
Experiments:
[1] = tested on: ptosis (eye closure) induced by reserpine; assay: prevention of ptosis (eye closure) induced by reserpine in rats; format: in vivo, rat (male, Charles River CD strain)
Description: Male rats of the Charles River CD strain weighing between 140 and 180 g were randomly separated into five rats in each cage and supplied with food and water ad libitum. Eighteen hours prior to initiation of the test four of the five rats were marked with a pen such that each rat was individually identifiable; food was then withdrawn. The following morning, two hours before the test, the rats were weighed and a semi-randomised code was used to allocate treatments to rats. The test commenced by orally administering either:
The degree of ptosis was scored […] later using the following observer rating system: 0=eye fully open, 1=eye 1/4closed, 2=eye 1/2closed, 3=eye 3/4closed, 4=eye fully closed. A mean ptosis score was then calculated for all identically treated rats usually comprising a group of eight rats. […] It is widely understoodby those skilled in the art that this test is indicative of compounds having antidepressant activity in humans.

dopamine reuptake sites = dopamine reuptake sites (Rattus norvegicus, UniProt P23977); assay: inhibition of [3H]dopamine uptake in vitro in rat striatal synaptosomes; format: biochemical, rat (male Charles River); details: [3H]dopamine (2.5 nM) uptake, 5 minutes at 37° C.; calculated from IC50; means ± sem of three independent determinations
Chain of dopamine reuptake sites (P23977 whole entry): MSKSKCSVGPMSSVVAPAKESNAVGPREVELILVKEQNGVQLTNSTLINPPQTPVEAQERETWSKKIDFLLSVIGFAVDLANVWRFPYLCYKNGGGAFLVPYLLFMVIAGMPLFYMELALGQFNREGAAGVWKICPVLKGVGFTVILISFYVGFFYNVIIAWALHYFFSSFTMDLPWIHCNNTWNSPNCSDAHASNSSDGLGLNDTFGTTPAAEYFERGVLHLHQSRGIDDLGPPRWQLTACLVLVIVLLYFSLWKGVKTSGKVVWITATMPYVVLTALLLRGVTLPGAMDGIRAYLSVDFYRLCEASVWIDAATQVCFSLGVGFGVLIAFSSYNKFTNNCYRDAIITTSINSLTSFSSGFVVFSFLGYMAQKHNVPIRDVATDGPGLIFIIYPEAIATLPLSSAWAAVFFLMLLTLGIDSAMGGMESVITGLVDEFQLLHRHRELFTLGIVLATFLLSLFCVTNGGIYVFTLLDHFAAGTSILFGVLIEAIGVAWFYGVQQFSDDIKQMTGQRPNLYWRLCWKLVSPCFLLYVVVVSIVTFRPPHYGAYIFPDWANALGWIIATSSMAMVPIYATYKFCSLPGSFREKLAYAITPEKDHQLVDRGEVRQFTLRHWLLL
Protocol: Striatal tissue from the brains of male Charles River rats weighing 150-250 g was homogenised in ice-cold 0.32M sucrose (1:10 w/v) using a motor driven teflon pestle (difference in diameter between mortar and pestle 0.5 mm). Nuclei and cell debris were removed by centrifugation at 1,500 g at 4° C. for 10 minutes. The pellet (P1) was discarded and the supernatant centrifuged at 18,000 g at 4° C. for 10 minutes. The crude synaptosomal pellet (P2) was resuspended in Krebs-Henseleit buffer (equivalent to 4.2 mg wet weight of tissue/ml).
Crude synaptosomes were incubated in a shaking water bath at 37° C. for 15 minutes. Aliquots (150 μl; equivalent to 0.625 mg wet weight of tissue/tube) were then added to tubes containing 275 μl of Krebs-Henseleit buffer and 50 μl of Krebs-Henseleit buffer (total uptake) or 50 μl of test compound (10 concentrations ranging from 10-11-10-4M) or 50 μl of GBR 12909 (10^-5M; non-specific uptake). Uptake was initiated by the addition of 25 μl of freshly prepared [3H]dopamine(2.5 nM), followed by vortexing and was continued for 5 minutes at 37° C. in the shaking water bath.
Uptake was terminated by filtration under vacuum through Skatron 11735 filters using a Skatron cell harvester. Filters were than washed with 8 ml ice-cold saline. The scored filter paper discs were punched into vials, scintillation fluid added and radioactivity determinedby liquid scintillation counting.
The percentage inhibition of specific uptake of the tritiated ligand was calculated for each concentration of test compound. Inhibition curves were then produced. The concentration of compounds which gave 50% inhibition of specific uptake (IC50) was obtained from the curve. The inhibition constant (Ki) was then calculated using the formula [formula] in which [L] is the concentration of tritiated ligand used and Km is the affinity of the uptake site for the ligand. The Ki values for compounds for formula I and III are given in Table 1 as the means ± sem of three independent determinations.

[2] = Rattus norvegicus, po, 3 h, dose causing 50% prevention of reserpine-induced ptosis, test compound oral, reserpine 0.75 mg/kg intravenous, scored three hours later, read-out: ED50

Compound	ED50 [1, 2] [mg/kg]	Ki (dopamine reuptake sites) [nM]	ED50 ([1]; dose causing 50% prevention of reserpine-induced ptosis, test compound oral, reserpine 0.75 mg/kg intravenous, scored three hours later, citrate) [mg/kg]	ED50 ([1]; Rattus norvegicus, po, 3 h) [mg/kg]
CN(C)CCCSCC(=O)C1(c2ccc(Cl)c(Cl)c2)CCCC1.Cl [Example 20, 1-[1-(3,4-dichlorophenyl)cyclopentyl]-2-[3-(dimethylamino)propylthio]ethanone hydrochloride]	3.7	4.4 ± 0.2	–	–
CN(C)CCSCC(=O)C1(c2ccc3ccccc3c2)CCC1.Cl [Example 11, 2-[2-(dimethylamino)ethylthio]-1-[1-(2-naphthyl)cyclobutyl]ethanone hydrochloride]	24.1	–	–	–
CC(CSCC(O)C1(c2ccc(Cl)c(Cl)c2)CCC1)CN(C)C (stereo not drawn) [Example 19, 1-[1-(3,4-dichlorophenyl)cyclobutyl]-2-[3-(dimethylamino)-2-methylpropylthio]ethanol]	6.9	6.9 ± 0.6	–	–
CN(C)CCCSCC(=O)C1(c2cccc(Cl)c2)CCC1.Cl [Example 12, 1-[1-(3-chlorophenyl)cyclobutyl]-2-[3-(dimethylamino)propylthio]ethanone hydrochloride]	23.4	–	–	–
CN(CCSCC(=O)C1(c2ccc(Cl)c(Cl)c2)CCC1)Cc1ccccc1.Cl [Example 5, 2-[2-(N-benzyl-N-methylamino)ethylthio]-1-[1-(3,4-dichlorophenyl)cyclobutyl]ethanone hydrochloride]	16.4	–	–	–
CN(C)CCCCSCC(=O)C1(c2ccc(Cl)c(Cl)c2)CCC1.Cl [Example 13, 1-[1-(3,4-dichlorophenyl)cyclobutyl]-2-[4-(dimethylamino)-butylthio]ethanone hydrochloride]	5.9	6.5 ± 1	–	–
CN(C)CCCSCC(O)C1(c2ccc(Cl)c(Cl)c2)CCC1.O=C(O)CC(O)(CC(=O)O)C(=O)O (single isomer, unassigned; (+)) [Example 17, (+)-1-[1-(3,4-dichlorophenyl)cyclobutyl]-2-[3-(dimethylamino)-propylthio]ethanol citrate]	–	–	2.5	–
CN(C)CCCSCC(=O)C1(c2ccc(Cl)c(Cl)c2)CCC1.O=C(O)CC(O)(CC(=O)O)C(=O)O [Example 18, 1-[1-(3,4-dichlorophenyl)cyclobutyl]-2-[3-(dimethylamino)propylthio]ethanone citrate]	–	4.2 ± 0.4	–	4.9
CN(C)CCCSCC(O)C1(c2ccc(Cl)c(Cl)c2)CCC1 (stereo not drawn) [Example 9, 1-[1-(3,4-dichlorophenyl)cyclobutyl]-2-[3-(dimethylamino)propyl-thio]ethanol]	4.8	7.3 ± 1.6	–	–
CCN(CC)CCSCC(=O)C1(c2ccc(Cl)c(Cl)c2)CCC1 [Example 4, 1-[1-(3,4-dichlorophenyl)cyclobutyl]-2-[2-(diethylamino)ethylthio]ethanonehydrochloride]	9.7	–	–	–
CC(CSCC(=O)C1(c2ccc(Cl)c(Cl)c2)CCC1)CN(C)C (stereo not drawn) [Example 10, 1-[1-(3,4-dichlorophenyl)cyclobutyl]-2-[3-(dimethylamino)-2-methylpropylthio]ethanone]	8.7	7.2 ± 1	–	–
CN(C)CCSCC(=O)C1(c2ccc(Cl)c(Cl)c2)CCC1.Cl [Example 1, 1-[1-(3,4-dichlorophenyl)cyclobutyl]-2-[2-(dimethyl-amino)ethylthio]ethanone hydrochloride]	8.5	–	–	–
CN(C)CCS(=O)(=O)CC(=O)C1(c2ccc(Cl)c(Cl)c2)CCC1.Cl [Example 3, 1-[1-(3,4-dichlorophenyl)cyclobutyl]-2-[2-(dimethylamino)ethylsulphonyl]ethanone hydrochloride]	5.9	–	–	–
CN(C)CCSCC(O)C1(c2ccc(Cl)c(Cl)c2)CCC1.Cl (stereo not drawn) [Example 6, 1-[1-(3,4-dichlorophenyl)cyclobutyl]-2-[2-(dimethyl-amino)ethylthio]ethanol hydrochloride]	5.7	–	–	–
CN(C)CCCS(=O)(=O)CC(=O)C1(c2ccc(Cl)c(Cl)c2)CCC1.Cl [Example 8, 1-[1-(3,4-dichlorophenyl)cyclobutyl]-2-[3-(dimethylamino)propylsulphonyl]ethanone hydrochloride]	3.4	13.4 ± 0.1	–	–
CN(C)CCCSCC(=O)C1(c2ccc(Cl)c(Cl)c2)CCC1.O=C(O)/C=C/C(=O)O [Example 15, 1-[1-(3,4-dichloro-phenyl)cyclobutyl]-2-[3-(dimethylamino)propylthio]ethanone fumarate]	4	3.7 ± 0.4	–	–
CN(C)CCCSCC(=O)C1(c2ccc(Cl)c(Cl)c2)CCC1.Cl [Example 7, 1-[1-(3,4-dichlorophenyl)-cyclobutyl]-2-[3-(dimethylamino)propylthio]ethanone hydrochloride]	4.2	5 ± 0.5	–	–
CN(C)CC[S+]([O-])CC(=O)C1(c2ccc(Cl)c(Cl)c2)CCC1.Cl (stereo not drawn) [Example 2, 1-[1-(3,4-dichlorophenyl)cyclobutyl]-2-[2-(dimethylamino)ethylsulphinyl]ethanone hydrochloride]	7.7	–	–	–
CCCN(CCC)CCCSCC(=O)C1(c2ccc(Cl)c(Cl)c2)CCC1 [Example 14, 1-[1-(3,4-dichlorophenyl)cyclobutyl]-2-[3-(dipropylamino)propylthio]ethanone]	7.3	13.4 ± 2.1	–	–
CN(C)CCCSCC(O)C1(c2ccc(Cl)c(Cl)c2)CCC1.O=C(O)CC(O)(CC(=O)O)C(=O)O (single isomer, unassigned; (-)) [Example 16, (-)-1-[1-(3,4-dichlorophenyl)cyclobutyl]-2-[3-(dimethylamino)propylthio]ethanol citrate]	2.2	–	–	–
